The values that follow are results of earlier work, collected in patent US20050053658A1, “Extended release systems for macrolide antibiotics” (priority 2003, published 2005).

`CC[C@H]1OC(=O)[C@H](C)[C@@H](O[C@H]2C[C@@](C)(OC)[C@@H](O)[C@H](C)O2)[C@H](C)[C@@H](O[C@@H]2O[C@H](C)C[C@H](N(C)C)[C@H]2O)[C@](C)(OC)C[C@@H](C)C(=O)[C@H](C)[C@@H](O)[C@]1(C)O` [Clarithromycin]: the water solubility entry is “poorly water soluble”.
